US6034062A, “Bone morphogenetic protein (BMP)-9 compositions and their uses” (Genetics Institute, Inc., priority 1997, dated 2000)

Legend:
[1] = system: Articular cartilage explants from calf carpal joints; assay: Articular cartilage assay (proteoglycan synthesis, sulfate incorporation); type: cell-based; conditions: 100 ng/ml, calf articular cartilage explants
Method: The effect of BMP-9 on articular cartilage proteoglycan and DNA synthesis is assayed to determine if BMP-9 is involved in the regulation of metabolism of differentiated articular cartilage.
Articular cartilage explants from calf carpal joints are maintained in DMEM with 50 μg/ml ascorbate, 4 mM glutamine and antibiotics for 3 days. Cytokines (rhBMP-2, rhBMP-4, rhBMP-6 and rhBMP-9, IGF-1, bFGF (1-1000 ng/ml), and TGFβ (1-100 ng/ml)) are added to the medium and culture is continued for 3 more days. Medium is changed daily. Twenty-four hours prior to harvest, explants are pulsed with 50 μCi/ml ^35 SO4 or 25 μCi/ml ^3 H-thymidine. Explants are solubilized and separation of free isotope is performed by gel chromatography. Total DNA of each explant is measured by a spectrophotometric assay.

IMCD-3 cells = assay: IMCD-3 cell condensation and tubulogenesis in collagen matrix; type: cell-based; conditions: IMCD-3 cells in 3-dimensional collagen gel, 100 ng/ml, 6 days, serum-free
Method: Several cell lines are tested for BMP-9 responsiveness in vitro. Cell proliferation, as indicated by [^3 H]thymidine incorporation, is determined in cell lines derived from kidney and lung. Cell proliferation is determined by measuring [^3 H]thymidine incorporation in subconfluent cells treated for 24 h with or without growth factors. NRK-52E (ATCC CRL 1571), WI-38 (ATCC CCL-75), CCD-11Lu (ATCC CCL-202), CCD-16Lu (ATCC CCL-204), and A-549 (ATCC CCL-185) cell lines are placed at 10^4 cells/well in 96 well plates and assayed for [^3 H]thymidine incorporation as described above. IMCD-3 cells (ATCC #CRL-2123) are cultured in a collagen matrix as described by Barros et al., PNAS USA 92:4412-4416 (1995), and treated with growth factors for 6 days to allow tubule formation.
In contrast, BMP-9 appeared to stimulate proliferation in several fibroblast cell lines derived from lung. […] The effect of rhBMP-9 on tubulogenesis was examined in IMCD-3 cells, another epithelial kidney cell line. […] It is therefore contemplated that both lung and kidney cells are physiological targets for BMP-9.

primary rat hepatocytes = assay: Primary rat hepatocyte 3H-thymidine incorporation; type: cell-based; conditions: subconfluent primary rat hepatocytes, 36 hours, serum-free
Method: As a first indication of BMP-9 effects on confluent, serum starved HepG2 cells, cell proliferation is examined as determined by ^3 H-thymidine incorporation and cell counting. HepG2 cells are plated at […] in 96 well plates and cultured for 48 hours in DME/0.1% FCS to synchronize the cell cycle are treated for 24 hours with or without BMP-9 in the presence of 0.1% FCS. In ^3 H-thymidine incorporation assays, ^3 H-thymidine was included during the last 4 hours of treatment and cellular DNA was collected with a 96 well plate cell harvester. Proliferation was assayed by quantifying ethanol-precipitable ^3 H-thymidine incorporation by liquid scintillation counting. For cell counting assays, cells were trypsinized and counted with a hemacytometer. […] BMP-9 stimulates ^3 H-thymidine incorporation in HepG2 cells approximately five fold.
To determine if this proliferative effect of BMP-9 was unique to the HepG2 liver tumor cell line, primary rat hepatocytes were tested for effects of BMP-9 on ^3 H-thymidine incorporated as shown in FIG. 4.

[2] = system: BMP-9 receptors expressed on HepG2 cells; assay: 125I-BMP-9 binding to HepG2 cells; conditions: HepG2 cells, 125I-BMP-9 and 250-fold excess of unlabeled ligand
Method: BMP-9 responsiveness in parenchymal liver cells is tested by screening four liver cell lines for their ability to bind iodinated, CHO-derived BMP-9. […] Specific binding of BMP-9 to HepG2 cells is carried out by incubating HepG2 cells grown to confluence in Dulbecco's Modified Eagle's Medium (DME) containing 10% heat-inactivated fetal calf serum (FCS) on gelatinized 6 well plates with 2 ng/ml ^125 I-BMP-9 and increasing concentrations of unlabelled BMP-9 in binding buffer (136.9 mM NaCl, 5.37 mM KCl, 1.26 mM CaCl2, 0.64 mM MgSO4, 0.34 mM Na2 HPO4, 0.44 mM KH2 PO4, 0.49 mM MgCl2, 25 mM HEPES and 0.5% BSA, pH 7.4) for 20 hours at 4° C. to achieve binding equilibrium. This incubation follows a one hour preincubation at 37° C. in binding buffer alone. For crosslinking experiments, the cells were incubated with 500 μM disuccinimidyl suberate for 20 minutes at […] following binding. Cell extracts were analyzed on SDS-PAGE. […] To test the binding specificity of the receptors for BMP-9, HepG2 cells were incubated with ^125 I-BMP-9 and a 250-fold excess of different unlabeled ligands.

## TGFβ
[1]
  proteoglycan synthesis: significantly more active in stimulating proteoglycan synthesis

## rhHGF: recombinant human HGF, inducer of tubulogenesis in IMCD-3 cells
IMCD-3 cells
  cell condensation and tubulogenesis: induced a marked branching tubulogenesis

## TGF-β1: transforming growth factor β1
Primary rat hepatocytes
  3H-thymidine incorporation: inhibitory, not stimulatory
[2]
  crossreactivity of BMP-9 receptors with unlabeled ligand: no crossreactivity

## EGF: epidermal growth factor (NSDSECPLSHDGYCLHDGVCMYIEALDKYACNCVVGYIGERCQYRDLKWWELR; UniProt P01133 971-1023, looked up)
Primary rat hepatocytes
  3H-thymidine incorporation: markedly
